From article PMC11996864, “A small-molecule inhibitor of BCL10-MALT1 interaction abrogates progression of diffuse large B cell lymphoma” (The Journal of Clinical Investigation, 2025)
“And” between values parts separate entries of the source, which are not always exact repeats. Equal entries are not always repeated.

Tests used:
[1] = molecular target: T1, CYP1A2 (Homo sapiens, UniProt P05177); assay: Reversible CYP inhibition in human liver microsomes; format: in vitro ADME; details: read-out: Direct inhibition (IC50) CYP1A2
T1 construct: from tissue; host or cells: pooled, mixed-gender human liver microsomes
T1 sequence (P05177 whole entry): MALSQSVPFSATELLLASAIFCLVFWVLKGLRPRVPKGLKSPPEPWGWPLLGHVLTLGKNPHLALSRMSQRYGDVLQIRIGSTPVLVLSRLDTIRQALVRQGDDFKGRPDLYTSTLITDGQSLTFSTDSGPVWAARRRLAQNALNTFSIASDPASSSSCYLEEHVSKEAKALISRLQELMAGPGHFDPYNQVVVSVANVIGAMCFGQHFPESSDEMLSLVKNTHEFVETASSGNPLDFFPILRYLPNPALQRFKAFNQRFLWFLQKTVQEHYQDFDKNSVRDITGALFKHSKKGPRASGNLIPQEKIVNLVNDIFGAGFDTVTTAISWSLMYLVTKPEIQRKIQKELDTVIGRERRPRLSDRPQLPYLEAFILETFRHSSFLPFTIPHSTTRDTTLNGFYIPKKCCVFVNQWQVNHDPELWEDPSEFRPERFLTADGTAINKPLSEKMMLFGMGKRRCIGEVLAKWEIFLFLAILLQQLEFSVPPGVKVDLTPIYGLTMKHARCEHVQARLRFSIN
Experimental: (§1) Pharmacokinetic and cytochrome P450 inhibition studies. Studies were performed with the assistance of Touchstone Biosciences (Plymouth Meeting, Pennsylvania). […]
(§2) For reversible CYP […]
(§3) inhibition studies, different concentrations of M1i-124 were added to 0.2 mg/ml pooled, mixed-gender human liver microsomes (HLM). Each CYP450 isoform-specific probe substrate (CYP1A2, CYP2C9, CYP2C19, CYP2D6, and CYP3A4) was incubated individually with HLM and M1i-124 or corresponding positive control inhibitor (Phenacetin, Tolbutamaide, S-Mephenytoin, Dextromethorphan, Midazolam, and Testosterone). Samples were analyzed for metabolites of the probe substrates by LC-MS/MS at each of the test compound concentrations. A decrease in the formation of the metabolites compared to vehicle control was used to calculate the […]

[2] = molecular target: T2, CYP3A4M (Homo sapiens, UniProt P08684); assay: as above; format: in vitro ADME; details: read-out: Direct inhibition (IC50) CYP3A4M
T2 construct: from tissue; host or cells: pooled, mixed-gender human liver microsomes
T2 sequence (P08684 whole entry): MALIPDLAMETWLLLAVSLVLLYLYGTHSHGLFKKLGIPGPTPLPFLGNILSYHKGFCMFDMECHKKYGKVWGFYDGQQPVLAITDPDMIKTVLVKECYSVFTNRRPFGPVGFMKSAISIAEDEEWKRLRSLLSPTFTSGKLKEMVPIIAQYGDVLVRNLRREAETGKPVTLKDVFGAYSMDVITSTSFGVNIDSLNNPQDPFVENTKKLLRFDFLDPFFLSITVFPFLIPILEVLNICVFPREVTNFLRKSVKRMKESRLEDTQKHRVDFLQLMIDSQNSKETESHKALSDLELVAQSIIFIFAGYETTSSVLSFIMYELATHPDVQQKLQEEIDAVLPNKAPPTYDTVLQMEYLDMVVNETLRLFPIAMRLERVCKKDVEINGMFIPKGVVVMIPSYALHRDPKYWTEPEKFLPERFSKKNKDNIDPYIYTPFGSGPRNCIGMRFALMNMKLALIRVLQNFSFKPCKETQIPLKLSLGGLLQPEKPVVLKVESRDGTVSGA
Experimental: as §1, §2, §3

[3] = molecular target: T3, CYP2C19 (Homo sapiens, UniProt P33261); assay: as above; format: in vitro ADME; details: read-out: Direct inhibition (IC50) CYP2C19
T3 construct: from tissue; host or cells: pooled, mixed-gender human liver microsomes
T3 sequence (P33261 whole entry): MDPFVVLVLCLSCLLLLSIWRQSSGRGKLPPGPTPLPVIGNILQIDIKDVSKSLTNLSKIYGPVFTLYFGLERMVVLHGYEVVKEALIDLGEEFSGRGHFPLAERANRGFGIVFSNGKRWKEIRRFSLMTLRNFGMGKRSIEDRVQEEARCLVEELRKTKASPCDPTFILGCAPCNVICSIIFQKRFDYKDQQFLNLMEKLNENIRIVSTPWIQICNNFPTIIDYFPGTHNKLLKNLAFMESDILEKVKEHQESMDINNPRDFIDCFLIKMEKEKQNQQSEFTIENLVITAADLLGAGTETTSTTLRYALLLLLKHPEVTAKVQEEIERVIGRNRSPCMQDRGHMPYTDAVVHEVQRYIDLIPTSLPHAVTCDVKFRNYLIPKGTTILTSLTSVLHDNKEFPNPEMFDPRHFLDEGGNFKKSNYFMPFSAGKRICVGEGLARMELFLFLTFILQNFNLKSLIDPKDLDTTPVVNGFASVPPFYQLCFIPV
Experimental: as §1, §2, §3

[4] = molecular target: T4, CYP2D6 (Homo sapiens, UniProt P10635); assay: as above; format: in vitro ADME; details: read-out: Direct inhibition (IC50) CYP2D6
T4 construct: from tissue; host or cells: pooled, mixed-gender human liver microsomes
T4 sequence (P10635 whole entry): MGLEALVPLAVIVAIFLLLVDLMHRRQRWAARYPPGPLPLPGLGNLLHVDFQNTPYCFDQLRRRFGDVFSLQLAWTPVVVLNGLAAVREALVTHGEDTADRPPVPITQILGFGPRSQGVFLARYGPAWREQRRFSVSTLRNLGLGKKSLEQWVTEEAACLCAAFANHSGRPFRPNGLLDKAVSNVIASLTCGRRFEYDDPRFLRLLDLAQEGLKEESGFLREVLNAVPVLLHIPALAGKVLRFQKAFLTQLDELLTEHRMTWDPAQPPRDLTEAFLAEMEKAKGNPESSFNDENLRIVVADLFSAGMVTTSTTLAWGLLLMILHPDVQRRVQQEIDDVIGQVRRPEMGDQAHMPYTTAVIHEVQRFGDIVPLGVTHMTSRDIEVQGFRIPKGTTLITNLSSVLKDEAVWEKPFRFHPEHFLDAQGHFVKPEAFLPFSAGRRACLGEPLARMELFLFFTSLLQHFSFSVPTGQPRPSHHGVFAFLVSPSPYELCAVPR
Experimental: as §1, §2, §3

[5] = molecular target: T5, CYP2C9 (Homo sapiens, UniProt P11712); assay: as above; format: in vitro ADME; details: read-out: Direct inhibition (IC50) CYP2C9
T5 construct: from tissue; host or cells: pooled, mixed-gender human liver microsomes
T5 sequence (P11712 whole entry): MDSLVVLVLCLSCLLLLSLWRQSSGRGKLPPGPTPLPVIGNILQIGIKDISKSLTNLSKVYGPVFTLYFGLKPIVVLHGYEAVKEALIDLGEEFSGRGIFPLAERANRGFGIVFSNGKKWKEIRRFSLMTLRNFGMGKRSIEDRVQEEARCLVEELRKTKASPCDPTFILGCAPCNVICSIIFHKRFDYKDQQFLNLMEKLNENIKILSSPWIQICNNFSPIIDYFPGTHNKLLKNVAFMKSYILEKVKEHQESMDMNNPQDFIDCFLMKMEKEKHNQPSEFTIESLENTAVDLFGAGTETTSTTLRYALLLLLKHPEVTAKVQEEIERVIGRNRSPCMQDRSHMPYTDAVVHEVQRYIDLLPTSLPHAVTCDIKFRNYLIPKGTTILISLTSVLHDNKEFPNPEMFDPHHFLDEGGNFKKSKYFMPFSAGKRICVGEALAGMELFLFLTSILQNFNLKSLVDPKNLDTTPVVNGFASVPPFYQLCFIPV
Experimental: as §1, §2, §3

[6] = molecular target: T6, CYP3A4T (Homo sapiens, UniProt P08684); assay: as above; format: in vitro ADME; details: read-out: Direct inhibition (IC50) CYP3A4T
T6 construct: from tissue; host or cells: pooled, mixed-gender human liver microsomes
T6 sequence (P08684 whole entry): as the sequence (P08684 whole entry) above
Experimental: as §1, §2, §3

[7] = test system: BCL10 and MALT1 mRNA in TMD8 cells; assay: BCL10 and MALT1 mRNA expression, qRT-PCR; format: cell-based, human
Experimental: Transfection. HEK293T or HepG2 BCL10-/- cells (used only in Supplemental Figure 1 where indicated) were transiently transfected at approximately 80% confluence using Lipofectamine 3000 (ThermoFisher, Cat# L3000015) per manufacture instructions. Cells were lysed in buffer (150 mM NaCl, 2 mM EDTA, 10% glycerol, 1% Nonidet P-40, 20 mM Tris Hcl, pH 7.4) containing protease and phosphatase inhibitors (Thermo Scientific, Cat#78446) at 24 hours for HEK293T cells or 48 hours for HepG2 BCL10-/- cells.
Immunoprecipitation. Cells were rinsed in PBS and lysed in buffer (150 mM NaCl, 2 mM EDTA, 10% glycerol, 1% Nonidet P-40, 20 mM Tris HCl, pH 7.4) containing protease and phosphatase inhibitors (Thermo Scientific, Cat#78446). Supernatants were incubated with anti-Myc tag agarose beads (Takara, Cat# 631208) or anti-HA tag matrix (Roche, Cat# 11815016001) overnight at 4°C with gentle rotation. Beads were then pelleted at 1000 rpm for 2 min and washed 3-4 times with buffer. Antibody-protein conjugates were removed from beads by boiling for ~5-8 minutes in 2x Laemmli sample buffer (Bio-Rad Laboratories, Cat# 161073) containing 2-mercaptoethanol, and samples were then subjected to SDS-PAGE and immunoblotting.
Antibodies for western blots. The HRP-conjugated anti-HA (clone 3F10, Cat# 12013819001) and anti-HA (clone 3F10, Cat# 11867423001) antibodies were purchased from Sigma. The anti-phospho-IKKα(Ser176)/ IKKβ(Ser177) (clone C84E11, Cat# 2078), rabbit anti-GAPDH (clone […]
were purchased from Cell Signaling Technology. The mouse anti-GAPDH (clone 6C5, Cat# sc- […]
anti-IKKα/β (clone H-470, Cat# sc-7607) antibodies were purchased from Santa Cruz. The anti-N4BP1 antibody (Cat# CPA2415) was purchased from Cohesion Biosciences. The anti-mouse (Cat# W4021) and anti-rabbit (Cat# W4011) HRP-conjugated secondaries were purchased from Promega. The anti-Rat HRP-conjugated secondary was purchased from Cell Signaling […]
qRT-PCR. Jurkat T cells grown in serum free media for 4 hours with indicated inhibitors prior to stimulation with PMA/Ionomycin for 4 hours. […]

[8] = molecular target: T7, full-length MALT1 (Homo sapiens, UniProt Q9UDY8); assay: SPR binding of M1i-124 to immobilized full-length MALT1; details: steady-state affinity model; read-out: equilibrium dissociation constant (KD)
T7 construct: full-length GST-tagged MALT1 (Novus, catalog H00010892-P01) protein; purchased Novus H00010892-P01
T7 sequence (Q9UDY8 1-813 isoform Q9UDY8-2): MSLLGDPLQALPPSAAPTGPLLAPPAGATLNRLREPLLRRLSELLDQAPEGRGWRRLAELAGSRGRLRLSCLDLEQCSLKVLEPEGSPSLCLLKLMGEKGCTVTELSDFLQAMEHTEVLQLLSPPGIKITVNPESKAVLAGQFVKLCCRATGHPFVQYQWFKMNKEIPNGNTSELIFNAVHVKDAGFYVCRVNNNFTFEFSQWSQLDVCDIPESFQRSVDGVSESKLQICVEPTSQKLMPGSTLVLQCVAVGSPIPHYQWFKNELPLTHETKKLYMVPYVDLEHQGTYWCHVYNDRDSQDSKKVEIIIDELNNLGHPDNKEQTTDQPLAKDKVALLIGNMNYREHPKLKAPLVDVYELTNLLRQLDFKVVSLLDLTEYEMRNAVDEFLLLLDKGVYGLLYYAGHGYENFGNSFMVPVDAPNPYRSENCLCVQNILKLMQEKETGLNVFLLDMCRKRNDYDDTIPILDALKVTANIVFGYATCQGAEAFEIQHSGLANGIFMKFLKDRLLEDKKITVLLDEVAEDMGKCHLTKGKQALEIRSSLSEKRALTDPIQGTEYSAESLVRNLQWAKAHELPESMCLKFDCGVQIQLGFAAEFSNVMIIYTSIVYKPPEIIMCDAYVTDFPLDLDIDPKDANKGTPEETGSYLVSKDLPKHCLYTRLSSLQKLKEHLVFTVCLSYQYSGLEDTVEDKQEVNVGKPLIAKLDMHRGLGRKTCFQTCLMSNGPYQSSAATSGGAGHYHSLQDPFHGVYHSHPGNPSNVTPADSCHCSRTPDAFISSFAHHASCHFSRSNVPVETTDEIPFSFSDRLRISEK
Experimental: Surface plasmon resonance (SPR) experiments were performed on a Biacore 2000 system (Cytiva). Full-length GST-BCL10 (Abnova, catalog H00008915-P01) was immobilized onto a gold sensor chip surface, and analyte solution containing MALT1(DD+Ig1-2), MALT1(DD), or MALT1(Ig1-2) purified protein was injected over the surface through a series of flow cells (see Supplemental Methods for details on protein purification). The binding kinetic parameters were obtained using the Langmuir model for global fitting with 1:1 binding ratio where one ligand molecule interacts with one analyte molecule. The equilibrium dissociation constant (KD) of M1i-124 to full-length GST-tagged MALT1 (Novus, catalog H00010892-P01) protein was determined by Creative Biolabs using Biacore T200. Full-length MALT1 protein was immobilized onto CM5 sensor chip surface, and M1i-124 was injected at concentrations of 0, 12.5, 25, 50, 100, and 200 μM. The steady-state affinity model was used to determine the KD.

For `O=S(=O)(NCc1ccc2c(c1)OCO2)c1ccc(Cc2ccc(S(=O)(=O)NCc3ccc4c(c3)OCO4)cc2)cc1` [M1i-124], which IC50 [1] is on record?
Its IC50 is over 100 µM.

What about the IC50 [2] of the same compound?
The IC50 was 28 µM.

And the IC50 [3]?
The IC50 was 28 µM.

What about the IC50 [4] of the same compound?
The IC50 was 13 µM.

And the IC50 [5]?
The IC50 was 21 µM.

And the IC50 [6]?
The IC50 was 40 µM.

What about the “BCL10 mRNA (normalized)” value ([7]; TMD8, 1 μM, 24 hrs) of the same compound?
Its value is 1.022 and 1.024 and 1.305.

And the “MALT1 mRNA (normalized)” value ([7]; TMD8, 1 μM, 24 hrs)?
Its value is 0.842 and 0.979 and 1.096.

What about the “BCL10 and MALT1 mRNA levels” value ([7]; TMD8, result in words) of the same compound?
Its value is “modest time-dependent upregulation”.

And the Kd [8]?
Its Kd is 296 µM.
